# Measurements as given in PubChem BioAssay (NCI).
#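 1) Cells in 96-well plates. 2) Compound, 48 h, 5 concentrations. 3) Linear interpolation between surrounding doses. 4) Unreached endpoint = highest concentration. The concentration for 50% growth inhibition is given as GI50. TGI: concentration producing complete growth inhibition.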
# How the values were obtained:
# Assay in all cases: NCI tumour cell line growth inhibition, 48 h
# SW-620 colon = system: SW-620 colon
# 786-0 renal = system: 786-0 renal
# HS 578T breast = system: HS 578T breast
# MOLT-4 leukemia = system: MOLT-4 leukemia
# RPMI-8226 leukemia = system: RPMI-8226 leukemia
# DU-145 prostate = system: DU-145 prostate
# PC-3 prostate = system: PC-3 prostate
# UO-31 renal = system: UO-31 renal
# HOP-92 NSCLC = system: HOP-92 NSCLC
# CCRF-CEM leukemia = system: CCRF-CEM leukemia
# K-562 leukemia = system: K-562 leukemia
# HL-60(TB) leukemia = system: HL-60(TB) leukemia
# NCI-H23 lung = system: NCI-H23 lung
# ACHN renal = system: ACHN renal
smiles,measurement,setting,value
c1ccc(-c2c(-c3ccccc3)[n+](Cc3ccc4ccccc4c3)c(-c3ccccc3)n2Cc2ccc3ccccc3c2)cc1,GI50,SW-620 colon,326 nM
same,TGI,SW-620 colon,1380 nM
same,GI50,786-0 renal,352 nM
same,TGI,786-0 renal,1860 nM
same,GI50,HS 578T breast,370 nM
same,TGI,HS 578T breast,1830 nM
same,GI50,MOLT-4 leukemia,285 nM
same,TGI,MOLT-4 leukemia,1130 nM
same,GI50,RPMI-8226 leukemia,56.8 nM
same,TGI,RPMI-8226 leukemia,505 nM
same,GI50,DU-145 prostate,365 nM
same,TGI,DU-145 prostate,1430 nM
same,GI50,PC-3 prostate,200 nM
same,TGI,PC-3 prostate,862 nM
same,GI50,UO-31 renal,672 nM
same,TGI,UO-31 renal,2940 nM
same,GI50,HOP-92 NSCLC,158 nM
same,TGI,HOP-92 NSCLC,592 nM
same,GI50,CCRF-CEM leukemia,241 nM
same,TGI,CCRF-CEM leukemia,1240 nM
same,GI50,K-562 leukemia,181 nM
same,TGI,K-562 leukemia,1230 nM
same,GI50,HL-60(TB) leukemia,150 nM
same,TGI,HL-60(TB) leukemia,400 nM
same,GI50,NCI-H23 lung,224 nM
same,TGI,NCI-H23 lung,727 nM
same,GI50,ACHN renal,401 nM
same,TGI,ACHN renal,1390 nM
